In PubChem BioAssay AID248 (DTP/NCI, 2004):
Several values for one entry are separate records, joined by “and”; a condition that tells them apart may be missing. Identical values can stand only once. Toxic doses and inconclusive results are not listed.

Tested on: L1210 leukemia ip in BDF1 mice, survival T/C
Experiment: NCI In Vivo Anticancer Drug Screen. Data for tumor model L1210 Leukemia (intraperitoneal) in B6D2F1 (BDF1) mice
Conditions: endpoint: mean survival time, higher = longer survival
In short: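 Ratio derived from survival: compound-dosed mice over vehicle-dosed mice, all bearing a transplantable tumor.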

[1] = dose: 100.0 mg/kg/injection, schedule: Q04DX002 (ip), vehicle: saline with Tween-80
[2] = dose: 200.0 mg/kg/injection, schedule: Q04DX002 (ip), vehicle: saline with Tween-80
[3] = dose: 100.0 mg/kg/injection, schedule: Q04DX002 (ip), vehicle: Klucel (hydroxypropylcellulose) (HPC)
[4] = dose: 200.0 mg/kg/injection, schedule: Q04DX002 (ip), vehicle: Klucel (hydroxypropylcellulose) (HPC)
[5] = dose: 400.0 mg/kg/injection, schedule: Q04DX002 (ip), vehicle: Klucel (hydroxypropylcellulose) (HPC)
[6] = dose: 100.0 mg/kg/injection, schedule: Q04DX002 (ip), vehicle: saline
[7] = dose: 200.0 mg/kg/injection, schedule: Q04DX002 (ip), vehicle: saline
[8] = dose: 100.0 mg/kg/injection, schedule: Q01DX001 (ip), vehicle: saline
[9] = dose: 200.0 mg/kg/injection, schedule: Q01DX001 (ip), vehicle: saline
[10] = dose: 400.0 mg/kg/injection, schedule: Q01DX001 (ip), vehicle: saline

CCCCCCCCCCC[n+]1cccc(C#N)c1
T/C (dose: 5.0 mg/kg/injection, schedule: Q01DX009 (ip), vehicle: saline): 101 % of control
T/C (dose: 10.0 mg/kg/injection, schedule: Q01DX001 (ip), vehicle: saline): 94 % of control
T/C (dose: 10.0 mg/kg/injection, schedule: Q01DX009 (ip), vehicle: saline): 93 % of control
T/C (dose: 10.0 mg/kg/injection, schedule: Q04DX003 (ip), vehicle: saline): 98 % of control
T/C (dose: 20.0 mg/kg/injection, schedule: Q01DX001 (ip), vehicle: saline): 101 % of control
T/C (dose: 20.0 mg/kg/injection, schedule: Q01DX009 (ip), vehicle: saline): 95 % of control
T/C (dose: 20.0 mg/kg/injection, schedule: Q04DX003 (ip), vehicle: saline): 93 % of control
T/C (dose: 40.0 mg/kg/injection, schedule: Q01DX001 (ip), vehicle: saline): 108 % of control
T/C (dose: 40.0 mg/kg/injection, schedule: Q04DX003 (ip), vehicle: saline): 95 % of control

CCCCCCCCCCCC[P+](CCCC)(CCCC)CCCC
T/C (dose: 0.55 mg/kg/injection, schedule: Q01DX Z (ip), vehicle: saline): 110 % of control
T/C (dose: 1.16 mg/kg/injection, schedule: Q01DX Z (ip), vehicle: saline): 100 % of control
T/C (dose: 1.25 mg/kg/injection, schedule: Q01DX Z (ip), vehicle: saline): 110 % of control

COC(=O)C12C3C=CC(O3)C1(C(=O)OC)C1C=CC2O1 (stereo unspecified)
T/C (dose: 87.5 mg/kg/injection, schedule: Q01DX009 (ip), vehicle: Klucel (hydroxypropylcellulose) (HPC)): 100 % of control
T/C (dose: 175.0 mg/kg/injection, schedule: Q01DX009 (ip), vehicle: Klucel (hydroxypropylcellulose) (HPC)): 97 % of control
T/C (dose: 350.0 mg/kg/injection, schedule: Q01DX009 (ip), vehicle: Klucel (hydroxypropylcellulose) (HPC)): 101 % of control

CC1CN1P(=O)(Oc1ccccc1)N1CC1C (stereo unspecified)
T/C (dose: 44.0 mg/kg/injection, schedule: Q01DX Z (ip), vehicle: saline): 107 % of control
T/C (dose: 67.0 mg/kg/injection, schedule: Q01DX Z (ip), vehicle: saline): 107 % of control
T/C (dose: 100.0 mg/kg/injection, schedule: Q01DX Z (ip), vehicle: saline): 102 % of control
T/C (dose: 150.0 mg/kg/injection, schedule: Q01DX Z (ip), vehicle: saline): 122 % of control

CC(=NCc1ccccc1)C(C)(O)c1ccccc1 (stereo unspecified)
T/C (dose: 100.0 mg/kg/injection, schedule: Q01DX009 (ip), vehicle: other): 105 % of control
T/C (dose: 100.0 mg/kg/injection, schedule: Q04DX003 (ip), vehicle: other): 97 % of control
T/C (dose: 100.0 mg/kg/injection, schedule: Q04DX003 (ip), vehicle: saline): 97 % of control
T/C (dose: 200.0 mg/kg/injection, schedule: Q01DX009 (ip), vehicle: other): 107 % of control
T/C (dose: 200.0 mg/kg/injection, schedule: Q04DX003 (ip), vehicle: other): 90 % of control
T/C (dose: 200.0 mg/kg/injection, schedule: Q04DX003 (ip), vehicle: saline): 103 % of control
T/C (dose: 400.0 mg/kg/injection, schedule: Q01DX009 (ip), vehicle: other): 100 % of control
T/C (dose: 400.0 mg/kg/injection, schedule: Q04DX003 (ip), vehicle: other): 95 % of control
T/C (dose: 400.0 mg/kg/injection, schedule: Q04DX003 (ip), vehicle: saline): 95 % of control

O=C(c1ccccc1)C(C(NC1CCCCC1)c1ccccc1)N1CCCCC1 (stereo unspecified)
T/C (dose: 100.0 mg/kg/injection, schedule: Q01DX001 (ip), vehicle: Klucel (hydroxypropylcellulose) (HPC)): 95 % of control
T/C (dose: 200.0 mg/kg/injection, schedule: Q01DX001 (ip), vehicle: Klucel (hydroxypropylcellulose) (HPC)): 92 % of control
T/C (dose: 400.0 mg/kg/injection, schedule: Q01DX001 (ip), vehicle: Klucel (hydroxypropylcellulose) (HPC)): 92 % of control

CC(=O)NCC(O)C(O)C(/C=N/Nc1ccccc1)=N/Nc1ccccc1 (stereo unspecified)
T/C (dose: 50.0 mg/kg/injection, schedule: Q04DX002 (ip), vehicle: saline with Tween-80): 91 % of control
T/C [1]: 87 % of control
T/C [2]: 95 % of control

CCc1ccc(C(=O)c2ccccc2)c2c1C(=O)c1ccccc1C2=O
T/C [1]: 91 % of control
T/C [2]: 88 % of control
T/C (dose: 400.0 mg/kg/injection, schedule: Q04DX002 (ip), vehicle: saline with Tween-80): 102 % of control

CCOC(=O)C(C=Nc1ccc(S(N)(=O)=O)cc1)C(=O)OCC
T/C (dose: 100.0 mg/kg/injection, schedule: Q04DX003 (ip), vehicle: saline with Tween-80): 105 % of control
T/C (dose: 200.0 mg/kg/injection, schedule: Q04DX003 (ip), vehicle: saline with Tween-80): 92 % of control
T/C (dose: 400.0 mg/kg/injection, schedule: Q04DX003 (ip), vehicle: saline with Tween-80): 92 % of control

CNC(=O)c1ccc(NC(=O)Nc2ccc(C3=NCCN3)cc2)cc1NC(=O)Nc1ccc(C2=NCCN2)cc1
T/C (dose: 2.0 mg/kg/injection, schedule: Q01DX Z (ip), vehicle: carboxymethylcellulose (CMC)): 96 % of control
T/C (dose: 4.0 mg/kg/injection, schedule: Q01DX Z (ip), vehicle: carboxymethylcellulose (CMC)): 112 % of control
T/C (dose: 17.0 mg/kg/injection, schedule: Q01DX Z (ip), vehicle: carboxymethylcellulose (CMC)): 209 % of control and 351 % of control
T/C (dose: 27.0 mg/kg/injection, schedule: Q01DX Z (ip), vehicle: carboxymethylcellulose (CMC)): 287 % of control
T/C (dose: 34.0 mg/kg/injection, schedule: Q01DX Z (ip), vehicle: carboxymethylcellulose (CMC)): 239 % of control and 295 % of control
T/C (dose: 51.0 mg/kg/injection, schedule: Q01DX Z (ip), vehicle: carboxymethylcellulose (CMC)): 209 % of control
T/C (dose: 62.0 mg/kg/injection, schedule: Q01DX Z (oral), vehicle: carboxymethylcellulose (CMC)): 104 % of control
T/C (dose: 68.0 mg/kg/injection, schedule: Q01DX Z (ip), vehicle: carboxymethylcellulose (CMC)): 152 % of control
T/C (dose: 125.0 mg/kg/injection, schedule: Q01DX Z (oral), vehicle: carboxymethylcellulose (CMC)): 105 % of control
T/C (dose: 250.0 mg/kg/injection, schedule: Q01DX Z (oral), vehicle: carboxymethylcellulose (CMC)): 102 % of control
T/C (dose: 500.0 mg/kg/injection, schedule: Q01DX Z (oral), vehicle: carboxymethylcellulose (CMC)): 102 % of control

CC(C)(C)CC(C)(C)c1ccc(OCCOc2ccccc2NS(=O)(=O)c2ccc(N)cc2)cc1
T/C (dose: 50.0 mg/kg/injection, schedule: Q01DX009 (ip), vehicle: saline): 94 % of control
T/C (dose: 100.0 mg/kg/injection, schedule: Q01DX009 (ip), vehicle: saline): 91 % of control
T/C (dose: 200.0 mg/kg/injection, schedule: Q01DX009 (ip), vehicle: saline): 91 % of control

CCCCOC(=O)c1ccc(NC(=S)NC(=O)COc2ccccc2)cc1
T/C [3]: 118 % of control
T/C [4]: 101 % of control
T/C [5]: 97 % of control

O=C(O)CNC(=O)N1CCCC1
T/C [6]: 90 % of control
T/C [7]: 96 % of control
T/C (dose: 400.0 mg/kg/injection, schedule: Q04DX002 (ip), vehicle: saline): 104 % of control

COc1c(O)c2c(=O)cc3c4c5c(cc(=O)c6c(O)c(OC)c(CC(C)O)c(c(c1CC(C)O)c24)c65)OCO3 (stereo unspecified)
T/C [3]: 109 % of control
T/C [4]: 102 % of control
T/C [5]: 102 % of control

O=P(O)(O)OCC1OC(n2cnc3c(Cl)ncnc32)C(O)C1O (stereo unspecified)
T/C (dose: 50.0 mg/kg/injection, schedule: Q04DX002 (ip), vehicle: saline): 115 % of control
T/C [6]: 100 % of control
T/C [7]: 123 % of control

Cc1cc(N)c(C(=O)NN)cc1C
T/C [8]: 96 % of control
T/C [9]: 93 % of control
T/C [10]: 113 % of control

CCCCCCP(C)(=O)CCCCCC
T/C (dose: 100.0 mg/kg/injection, schedule: Q01DX001 (ip), vehicle: saline with Tween-80): 99 % of control

O=C(COc1cc(Cl)c(Cl)cc1Cl)Nc1ccc(N=Nc2ccccc2)cc1
T/C [3]: 99 % of control
T/C [4]: 99 % of control
T/C [5]: 86 % of control

CN(C)S(=O)(=O)c1ccc(NC(=O)OC2CCCCC2)cc1
T/C [8]: 96 % of control
T/C [9]: 91 % of control
T/C [10]: 96 % of control
